Test results from patent US8771754B2, “Use of GSK3 inhibitors in combination with radiation therapies” (priority 2004, dated 2014).

Tested on: HT-22 hippocampal neuronal cells
Experiment: Apoptosis assay, Annexin V-FITC and propidium iodide flow cytometry
Assay type: cell-based, mouse
Details: for radiation-induced apoptosis, cells positive for apoptosis: HT-22, pretreated (LiCl 3 mM 7 days; inhibitor VIII 1 μM or SB415286 25 μM 24 h), 3 Gy, 24 h after irradiation, 3 Gy alone 53%, untreated 8%
Procedure: Apoptosis assays. HT-22 cells were treated with LiCl (3 mM) for 7 days, with GSK3β inhibitor VIII (1 μM) or SB415286 (25 μM) for 24 hours prior to irradiation. Camptothecin (5 μM) was added to the HT-22 cells 6 hours prior to harvest as a positive control for apoptosis. The HT-22 cells with or without the inhibitors were irradiated with 3 Gy and harvested 24 hours post irradiation. Annexin V-FITC (5 ng) and propidium iodide (50 ng) were added to […]. Stained cells were analyzed by flow cytometry. The fraction of cells in each of the four gating windows (Q1-4) was calculated.
Apoptosis was studied in irradiated mouse HT-22 hippocampal neuronal cells pretreated with LiCl, GSK3β inhibitor VIII or SB415286. The fraction of cells in each of the four gating windows (Q1-4) was calculated and tabulated as the mean and SEM of 3 separate experiments. Camptothecin served as positive control for apoptosis and was added to HT-22 cells prior to staining for apoptosis. Camptothecin positive control induced apoptosis in 78.8% of cells. In comparison, 3 Gy irradiation induced apoptosis in 53% of cells, while 8% of untreated control cells stained positive for apoptosis (FIG. 2B). […] Lithium, as a nonspecific neuroprotector, attenuated radiation-induced apoptosis to 21.9% of cells (P=0.01, 3 Gy vs. 3 Gy+LiCl). The radioprotective effect of lithium in HT-22 neuronal cells was also analyzed by morphologic analysis using DAPI staining.

CC[C@@]1(O)C(=O)OCc2c1cc1n(c2=O)Cc2cc3ccccc3nc2-1 [Camptothecin]
apoptosis induced by positive control (HT-22, camptothecin 5 μM added 6 hours prior to harvest): 78.8%

COc1ccc(CNC(=O)Nc2ncc([N+](=O)[O-])s2)cc1 [GSK3β inhibitor VIII]
radiation-induced apoptosis, cells positive for apoptosis: 33.9%

O=C1NC(=O)C(c2ccccc2[N+](=O)[O-])=C1Nc1ccc(O)c(Cl)c1 [SB415286]
radiation-induced apoptosis, cells positive for apoptosis: 41.4%
